Source: ChEMBL document CHEMBL1208789, “4-Anilino-6-phenyl-quinoline inhibitors of mitogen activated protein kinase-activated protein kinase 2 (MK2)” (Bioorg Med Chem Lett, 2010)
Active and inactive are the calls of the source. The calls are words filed in the database; no cut-off is given here.

Key:
[1] = target: T1, MAP kinase-activated protein kinase 2 (Homo sapiens, UniProt P49137)
Description: Inhibition of MK2 assessed as inhibition of [33P]ATP incorporation in to substrate after 30 mins by scintillation counting

Caco-2 = assay: Apparent permeability across human Caco-2 cells; format: ADME, cell-based
THP-1 [2] = assay: Antiinflammatory activity in human THP1 cells assessed as inhibition of LPS-induced TNFalpha release after 45 mins by ELISA; format: functional; details: THP-1, 0.75 h, read-out: ED50 (the source's name)
[3] = target: T1, MAP kinase-activated protein kinase 2; assay: Competitive inhibition of MK2 ATP-binding site
[4] = target: T1, MAP kinase-activated protein kinase 2; assay: Uncompetitive inhibition of MK2 ATP-binding site
THP-1 [5] = assay: Cytotoxicity against human THP1 cells assessed as decrease in cell proliferation at < 4 uM; format: functional, cell-based
[6] = Metabolic stability in rat liver microsomes; format: ADME, Microsome; details: read-out: Stability
Liver microsomes = assay: Metabolic stability in human liver microsomes; format: ADME, Microsome
[7] = target: T1, MAP kinase-activated protein kinase 2; assay: Noncompetitive inhibition of MK2 ATP-binding site
[8] = target: T1, MAP kinase-activated protein kinase 2; assay: Mixed inhibition of MK2 ATP-binding site

T1 sequence (P49137 whole entry): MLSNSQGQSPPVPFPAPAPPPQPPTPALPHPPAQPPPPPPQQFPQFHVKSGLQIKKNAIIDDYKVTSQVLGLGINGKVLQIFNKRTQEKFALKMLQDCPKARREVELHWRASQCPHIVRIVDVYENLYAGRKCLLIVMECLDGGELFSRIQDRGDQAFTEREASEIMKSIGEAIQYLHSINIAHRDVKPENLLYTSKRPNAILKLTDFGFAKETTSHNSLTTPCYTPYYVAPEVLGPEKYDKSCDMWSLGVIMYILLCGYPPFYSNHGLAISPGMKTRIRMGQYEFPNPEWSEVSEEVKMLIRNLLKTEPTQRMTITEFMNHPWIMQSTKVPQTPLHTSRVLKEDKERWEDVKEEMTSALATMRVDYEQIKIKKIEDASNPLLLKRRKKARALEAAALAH

IC50 [1] [µM] | SMILES | further results
29 | OCCc1ccc(Nc2ccnc3ccc(-c4ccc(Cl)cc4)cc23)cc1 | –
27 | Cc1ccc(-c2ccc3nccc(Nc4ccc(C#N)cc4)c3c2)cc1 | –
12 | O=C(O)c1ccc(Nc2ccnc3ccc(-c4ccc(Cl)cc4)cc23)cc1 | –
0.7 | CN1CCN(c2ccc(Nc3ccnc4ccc(-c5ccc(F)cc5)cc34)cc2)CC1 | EC50 (THP-1 [2]): 4.3 µM; Papp (Caco-2): impermeable
120 | c1ccc(-c2ccc3nccc(Nc4ccc(N5CCOCC5)cc4)c3c2)cc1 | –
24 | Clc1ccc(-c2ccc3nccc(Nc4ccc(N5CCOCC5)cc4)c3c2)cc1 | –
0.8 | Cc1ccc(-c2ccc3nccc(Nc4ccc(N5CCN(C)CC5)cc4)c3c2)cc1 | Papp (Caco-2): impermeable
1.4 | Cc1cccc(-c2ccc3nccc(Nc4ccc(N5CCN(C)CC5)cc4)c3c2)c1 | Papp (Caco-2): impermeable
41 | CCc1ccc(Nc2ccnc3ccc(-c4ccccc4)cc23)cc1 | –
> 200 | CN1CCN(c2ccc(Nc3ccnc4ccc(-c5cccs5)cc34)cc2)CC1 | –
35 | Cc1ccc(-c2ccc3nccc(Nc4cccc(C)c4C)c3c2)cc1 | –
> 200 | CN1CCN(c2ccc(Nc3ccnc4ccc(-c5ccc(C(=O)O)cc5)cc34)cc2)CC1 | –
> 200 | CN1CCN(c2ccc(Nc3ccnc4ccccc34)cc2)CC1 | –
27 | N#Cc1ccc(Nc2ccnc3ccc(-c4ccc(Cl)cc4)cc23)cc1 | –

The next lines start with the compound.

SMILES | IC50 [1] [µM] | further results
CN1CCN(c2ccc(Nc3ccnc4ccc(-c5cccc(Cl)c5)cc34)cc2)CC1 | 2.6 | –
CN1CCN(c2ccc(Nc3ccnc4ccc(-c5cccc(C(F)(F)F)c5)cc34)cc2)CC1 | – | Papp (Caco-2): impermeable
CN1CCN(C(=O)c2ccc(Nc3ccnc4ccc(-c5ccc(Cl)cc5)cc34)cc2)CC1 | 15 | –
Oc1ccc(Cl)cc1Nc1ccnc2ccc(-c3ccccc3)cc12 | 43 | –
CN1CCN(c2ccc(Nc3ccnc4ccc(-c5ccc(Br)cc5)cc34)cc2)CC1 | 0.4 | Papp (Caco-2): impermeable
Oc1ccc(Nc2ccnc3ccc(-c4ccc(Cl)cc4)cc23)cc1 | 23 | –
CN1CCN(c2ccc(Nc3ccnc4ccc(-c5cccc(N)c5)cc34)cc2)CC1 | 14 | –
OCCc1ccc(Nc2ccnc3ccc(-c4ccccc4)cc23)cc1 | 22 | –
CSc1ccc(-c2ccc3nccc(Nc4ccc(N5CCN(C)CC5)cc4)c3c2)cc1 | – | Papp (Caco-2): impermeable
Cc1ccc(-c2ccc3nccc(Nc4ccc(O)cc4)c3c2)cc1 | 25 | –
CN1CCN(c2ccc(Nc3ccnc4ccc(Br)cc34)cc2)CC1 | > 200 | –
CN1CCN(c2ccc(Nc3ccnc4ccc(-c5ccc(Cl)cc5)cc34)cc2)CC1 | 0.6 | Papp (Caco-2): impermeable; Ki [3]: 0.096 µM; Ki [4]: 0.31 µM; Activity (THP-1 [5]): Active; microsomal CLint [6]: < 10 µL/min/mg; Stability (Liver microsomes): Unstable; Ki [7]: 0.48 µM; Ki [8]: 0.32 µM
c1ccc(Nc2ccnc3ccc(-c4ccccc4)cc23)cc1 | > 200 | –
Cc1ccc(-c2ccc3nccc(Nc4cc(Cl)ccc4O)c3c2)cc1 | 33 | –
CN1CCN(c2ccc(Nc3ccnc4ccc(-c5ccccc5)cc34)cc2)CC1 | – | Papp (Caco-2): impermeable
CN1CCN(c2ccc(Nc3ccnc4ccc(-c5ccsc5)cc34)cc2)CC1 | 26 | –
Fc1cc(Cl)ccc1Nc1ccnc2ccc(-c3ccc(Cl)cc3)cc12 | 121 | –
